Entries after “also recorded” stand apart in the source; their conditions may differ.
Tests used:
[1] = system: cervical lymph node T cells and DCs; assay: Flow cytometry of draining cervical lymph nodes after s.c. vaccination; type: in vivo, C57BL/6 mice; conditions: vs lysate or normal
Description: Flow cytometry. Normal B6 mice were vaccinated two times, one week apart with CpG/lysate, CpG, lysate, or were not vaccinated as the controls (n=4/group). Six days after the last vaccination, the left and right cervical lymph nodes of each mouse were harvested, counted for LN cell numbers, and analyzed by flow cytometry with various monoclonal antibodies (1 μg/10^6 cells) including FITC-anti-CD3, PE-anti-CD8, APC-anti-CD4, FITC-anti-CD1 1c, PE-anti-CCR7, and APC-anti-CD86 (eBioscience, San Diego, Calif.).
The ability of CpG ODN to activate and mature DCs to elicit T cell-mediated responses has been established. An experiment was conducted to characterize the effects of CpG/lysate vaccination on DCs and T cells in the draining lymph nodes. Normal B6 mice were vaccinated two times, one week apart, by subcutaneous (s.c.) injection with CpG ODN, tumor lysate, or CpG/lysate (n=4/group). Six days after the second vaccination, the draining cervical lymph nodes of each mouse were harvested, counted for total cell number, and analyzed by flow cytometry.

[2] = system: intracranial GL261-Luc glioma; assay: s.c. vaccination of mice bearing intracranial GL261-Luc glioma, bioluminescent imaging and survival (Example 5); type: in vivo, C57BL/6 mice; conditions: s.c. days 4, 11, 18
Description: Glioma model and in vivo imaging. Six to seven week old female C57BL/6 mice were purchased from Jackson Laboratory and maintained in a specific pathogen free (SPF) facility according to the guidelines of the University of Minnesota Animal Care and Use Committee (IACUC). For intracranial tumor inoculations, animals were deeply anesthetized with a ketamine/xylazine cocktail solution (53.7 mg/ml ketamine, 9.26 mg/ml xylazine) delivered at 1 ml/kg. 10,000 GL261-Luc cells in 1 μl of PBS were implanted stereotactically into the right striatum; coordinates were 2.2 mm lateral, and 0.5 mm posterior of bregma, and 3 mm ventral from the cortical surface of the brain. For imaging mice were deeply anesthetized by i.p. injection with avertin (225 mg/kg) and injected with 100 μl of luciferin (substrate for luciferase enzyme; 28.5 mg/ml, Xenogen®, Hopkinton, Mass.). Mice were imaged five minutes after luciferin injection using the Ivis 50 system (Xenogen®). […] Luciferase activity was analyzed using living image software (version 2.5; Xenogen®) according to the manufacturer's instructions. […]
Statistical analysis. […] Differences in animal survival between treatment groups were evaluated by log-rank statistical analysis with Sigmastat software (Systat Software, Inc. San Jose, Calif.); only P values <0.05 were considered significant.

GL261 mouse glioma model = assay: Intratumoral CpG ODN administration in GL261 mouse glioma model; type: in vivo; conditions: weakly immunogenic GL261 / GL261-Luc model
[3] = system: Human brain tumor stem cells; assay: Incubation of human brain tumor stem cells in INF-gamma; type: cell-based

Molecule | number of activated (CD11c+CD86+/CCR7+) DCs in draining lymph nodes [1] | effect on tumor growth or survival [2] | efficacy of intratumoral administration (GL261 mouse glioma model) | immunogenicity of cancer stem cells after incubation [3]
5′-TCGTCGTTTTGTCGTTTTGTCGTT-3′ [CpG ODN] | significant increase | no effect | not effective; also recorded: failed to cause sustained tumor regression | 
INF-gamma: interferon-gamma in which cancer stem cells were incubated (protein, UniProt P01579 24-161, looked up) Interferon gamma: QDPYVKEAENLKKYFNAGHSDVADNGTLFLGILKNWKEESDRKIMQSQIVSFYFKLFKNFKDDQSIQKSVETIKEDMNVKFFNSNKKKRDDFEKLTNYSVTDLNVQRKAIHELIQVMAELSPAAKTGKRKRSQMLFRG |  |  |  | restores their immunogenecity
